Assay results as given in patent US20230257716A1 (priority 2020, published 2023).
“Also recorded” adds a separate entry of the source.

How the values were obtained:
[1] = tested on: PR8 strain of H1N1 modified to express GFP; assay: microbe, parasite or virus in culture; format: cell-based, influenza H1N1 (in human distal lung organoids)
AT2 organoids = assay: AT2 organoid proliferation with niche factors and PORCUPINE inhibitor
Experimental: Screening exogenous growth factors in organoid culture. Distal airway cells were isolated and plated as above with the following exceptions: ADMEM/F12 was used instead of organoid medium during elastase digestion of lung tissue, cells were serially diluted and filtered through a 40 micron cell strainer and counted with a hemocytometer. 1000 viable epithelial cells (by Trypan blue exclusion, size, and morphology) per μL ECM were plated per 5 μL Matrigel droplet per well. Base media consisted of organoid media lacking A83-01, EGF, NOGGIN, WNT3A or RSPO1. EGF (final 50 ng/ml, R&D), NOGGIN (final 100 ng/ml, R&D), WNT3A (final 100 ng/ml, R&D), RSPO1 (final 500 ng/ml, Peprotech) or the PORCUPINE inhibitor C59 (final 1μM, Biogems) were added singly or in combination to base media. Images were obtained ten days after primary plating with an inverted light microscope at 5X magnification. Each condition was plated in quadruplicate and organoid formation was quantified using the analyze particle (threshold=4902 pixels) plugin in ImageJ as previously described.

basal organoids = assay: Growth factor evaluation for basal organoids after sedimentation and clonogenic culture; format: cell-based, human; design: basal organoid growth: dose or concentration left out as unconfirmed
Excerpt: (§1) Screening exogenous growth factors in organoid culture.
Density sedimentation of basal cells. Organoid cultures within 2-3 weeks of primary plating were dissociated with 1 U/ml neutral protease (Worthington, Cat LS02100) and 100 KU of DNase I in organoid media. Basal organoids were then collected by gravity sedimentation and the supernatant was either aspirated or collected for downstream use. Basal organoids were then further fractionated on a custom Ficoll-Paque gradient (4 vol Ficoll-Paque to 1 vol PBS) and centrifuged at 300×g for 10 minutes at room temperature. The supernatant was aspirated and the organoid pellet was resuspended in 10 ml PBS in a 15 ml conical tube, collected by gravity sedimentation, and plated into ECM as described above.

[2] = tested on: human distal lung organoids; assay: Screening exogenous growth factors in distal lung organoid culture; format: cell-based; conditions: single cell suspensions of distal lung, feeder-free; EGF and NOGGIN in combination
Excerpt: as §1

TNFRSF12A^hi basal cells [3] = conditions: basal organoids from FACS-purified TNFRSF12A^hi EPCAM+ITGA6+ITGB4+ cells, 14 days culture
Experimental: NOTCH manipulation in TNFRSF12A^hi basal cells. TNFRSF12A^hi basal cells were isolated and cultured as above. 24 hours after plating, media was changed to lung organoid media with either vehicle (0.1% DMSO), 1 μg/ml JAG1 peptide (Anaspec), 500 nM soluble recombinant NOTCH receptor inhibitor Delta Like Ligand 4 mutant (DLL4E12), or 1 μM gamma secretase inhibitor DBZ (Tocris). After 14 days of culture, biochemical estimation of proliferation was carried out by resazurin reduction assay (Alamar Blue, Thermo Fisher) for 16 hours according to manufacturer's protocol and resazurin reduction was measured via fluorescence readout on a Biotek Synergy H1 plate reader according to the manufacturer's protocol. Reference blank consisted of Alamar Blue reagent incubated in parallel media without cells.

TNFRSF12A^hi basal cells [4] = conditions: NOTCH inhibition
Experimental: Quantitation of SCGB1A1 and SFTPC mRNA expression in TNFRSF12A^hi basal cells. FACS-isolated basal cells cultured in the above conditions were fixed in 2% paraformaldehyde in PBS for one hour at room temperature, embedded in HistoGel (Thermo Fisher HG-4000-012), dehydrated and paraffin embedded en bloc. One hundred serial sections were obtained at 10 micron thickness, and immunocytochemistry and in situ hybridization were performed at each 100 micron level. Confocal images were acquired in a blinded manner and organoids were defined as a cluster of 3 or greater DAPI nuclei. Channels were acquired using identical parameters for DAPI, Alexa 488 (SFTPC RNA in situ hybridization), Texas Red (SCGB1A1 RNA in situ hybridization), and Alexa 647 (KRTS immunostaining). Z-stacks were collected and images were processed in ImageJ and maximum intensity Z projections were used to quantitate SCGB1A1 and SFTPC RNA in situ in Cell Profiler using the RNA Proximity Ligase Assay counting pipeline.

## Nc1ccn([C@@H]2O[C@H](CO)[C@@H](O)[C@H]2F)c(=O)n1 [FdC, 2′-deoxy-2′-fluorocytidine]
[1]
  inhibition of H1N1 viral infection or replication (GFP attenuation): efficacious with EC50 consistent with previous reports
[1]; Influenza A virus, read-out: IC50 on influenza infectivity and replication (dose response curve)
  IC50: 340 nM

## Cc1cc(-c2ccc(CC(=O)Nc3ccc(-c4cccnc4)cc3)cc2)ccn1 [C59, reference compound]
AT2 organoids; PORCUPINE inhibitor C59 (1 μM)
  AT2 organoid growth: attenuated AT2 organoid growth
Basal organoids; after d14 sedimentation, clonogenic culture, C59
  basal organoid growth: growth was not significantly inhibited; also recorded: Growth was not affected

## EGF: recombinant human EGF (R&D Systems)
AT2 organoids; EGF and NOGGIN together, WNT-3A and RSPONDIN-1 added exogenously
  clonal AT2 organoid proliferation with exogenous growth factors: sufficient for clonal AT2 organoid proliferation
[2]
  distal lung organoid growth with exogenous growth factors: optimal
Basal organoids; pure basal cell cultures, EGF and Noggin together
  basal organoid growth with exogenous growth factors: sufficient for maximal growth

## CC(=O)N[C@H]1[C@H]([C@H](O)[C@H](O)CO)OC(C(=O)O)=C[C@@H]1N=C(N)N [zanamivir]
[1]
  IC50 on influenza infectivity and replication (dose response curve): did not exhibit a dose response curve
  inhibition of H1N1 viral infection or replication (GFP attenuation): did not inhibit H1N1 viral infection or replication

## C[C@H](NC(=O)Cc1cc(F)cc(F)c1)C(=O)N[C@@H]1C(=O)N(C)c2ccccc2-c2ccccc21 [DBZ]
TNFRSF12A^hi basal cells [3]
  proliferation (resazurin dye reduction): significantly increased proliferation
TNFRSF12A^hi basal cells [4]
  SFTPC mRNA expression: upregulating SFTPC mRNA
